Key:
rice plants [1] = test: Further field trials 2016, rice variety ADT45 (7 trials); assay type: in vivo, Oryza sativa L.; conditions: 10 g AI/ha; for Average yield increase compared to UTC (%): 7 trials 2016; for Yield at 14% MC (kg/ha): 7 trials 2016, mean daily min 25.13° C., max 34.13° C., UTC 6512
Protocol: Rice (Oryza sativa L.) of the local varieties ADT43, ADT45 and NK5251 were mechanically transplanted at four plants per hill with a plant spacing of 16 cm and a row spacing of 30 cm. All trials were performed in good level of water management. Fertilizer was applied in accordance with the best local practice across the trial area. Commercial treated seeds (no neonicotinoids as seed treatments) were used. Weed control was according to the best local practice in order to provide excellent weed control. Foliar fungicides and insecticides were applied according to common practice (no products that contain neonicotinoids or strobilurins). The trial design was a randomized bloc design. Plot size was 40 m^2 (4 m width [12 rows] by 10 m row length). Each trial had four replicates. In total, eleven trials were conducted. The compound of formula (Ia) was applied at a rate of 10 g ai/ha with small-plot hand-held boom sprayer. Application of the compound was as broadcast foliar spray in close proximity to leaf/canopy surface (25-40 cm distance from the crop). The used spray volumes were between 250 L/ha and 500 L/ha. Application was done either at panicle initiation (BBCH 30), at panicle formation (BBCH 32), at spikelet differentiation (BBCH 35), at meiosis (BBCH 39) or at heading (BBCH 51). In some experiments, the compound was applied twice (2×10 g ai/ha) at consecutive growth stages (i.e., BBCH 30+32, BBCH 32+35, BBCH 35+39, and BBCH 39+51). Tolerance to heat stress was assessed by measuring the following yield components: number of panicles per area, number of grains per panicle, percentage of ripened (filled) grains, number of tillers per area, percentage of productive tillers, grain yield per area at 14% moisture and thousand grain weight (TGVV). Further trials were conducted in the Tamil Nadu rice production area (India) in 2016 using the protocol as described above using rice variety ADT45, with treatment timings of panicle initiation (BBCH 30), panicle formation (BBCH 32), spikelet differentiation (BBCH 35) and meiosis (BBCH 39) only. The compound of formula (Ia) was applied at a rate of 10 g Al/ha. Grain yield was measured at 14% moisture content (MC).

rice plants [2] = test: Field trials 2012-2015: tolerance of rice plants to heat stress (eleven trials); assay type: in vivo, Oryza sativa L.
Protocol: Field trials were setup during the hot season in India to test the effect of treatment with the compound of formula (Ia) on tolerance of rice plants to heat stress.
Trials were conducted in 2012, 2013, 2014, and 2015 in the Tamil Nadu rice production area (India) at the following sites: Kelamoor (lat. 12.42, long. 79.81), Kokkur (lat. 11.02, long. 79.32), Nachinargudi (lat. 11.01, long. 79.3), Velamoor (lat. 12.41, long. 79.8), Kumbakonam (lat. 10.97, long. 79.42) and Ramapuram (lat. 12.43, long. 79.83). The test sites had similar soil chemical properties, with an average soil pH of 6.6.
Rice (Oryza sativa L.) of the local varieties ADT43, ADT45 and NK5251 were mechanically transplanted at four plants per hill with a plant spacing of 16 cm and a row spacing of 30 cm. All trials were performed in good level of water management. Fertilizer was applied in accordance with the best local practice across the trial area.
Commercial treated seeds (no neonicotinoids as seed treatments) were used. Weed control was according to the best local practice in order to provide excellent weed control. Foliar fungicides and insecticides were applied according to common practice (no products that contain neonicotinoids or strobilurins).
The trial design was a randomized bloc design. Plot size was 40 m^2 (4 m width [12 rows] by 10 m row length). Each trial had four replicates. In total, eleven trials were conducted.
The compound of formula (Ia) was applied at a rate of 10 g ai/ha with small-plot hand-held boom sprayer. Application of the compound was as broadcast foliar spray in close proximity to leaf/canopy surface (25-40 cm distance from the crop). The used spray volumes were between 250 L/ha and 500 L/ha. Application was done either at panicle initiation (BBCH 30), at panicle formation (BBCH 32), at spikelet differentiation (BBCH 35), at meiosis (BBCH 39) or at heading (BBCH 51). In some experiments, the compound was applied twice (2×10 g ai/ha) at consecutive growth stages (i.e., BBCH 30+32, BBCH 32+35, BBCH 35+39, and BBCH 39+51).
Temperature was recorded nearby the trial sites. During and up to 14 days after the critical growth stages (i.e. from panicle initiation until heading) the mean daily minimum temperature was 25.1° C. (in the range of 22.6° C. to 27.1° C.) and the mean daily maximum temperature was 35.5° C. (in the range of 29.0 to 38.9° C.).
Tolerance to heat stress was assessed by measuring the following yield components: number of panicles per area, number of grains per panicle, percentage of ripened (filled) grains, number of tillers per area, percentage of productive tillers, grain yield per area at 14% moisture and thousand grain weight (TGVV).
The data in Tables 1 to 3 represent averages of the results from all eleven independent field trials, expressed as a percentage compared to the untreated control. The percentage increase or decrease was calculated for each trial relative to the untreated control for that trial, prior to calculating the mean percentage change across all 11 trials.

[3] = BBCH 30 at application, 10 g ai/ha foliar spray, mean of 11 trials, mean daily min 25.1° C., max 35.5° C.
[4] = BBCH 32 at application, 10 g ai/ha foliar spray, mean of 11 trials, mean daily min 25.1° C., max 35.5° C.
[5] = BBCH 35 at application, 10 g ai/ha foliar spray, mean of 11 trials, mean daily min 25.1° C., max 35.5° C.
[6] = BBCH 39 at application, 10 g ai/ha foliar spray, mean of 11 trials, mean daily min 25.1° C., max 35.5° C.
[7] = BBCH 51 at application, 10 g ai/ha foliar spray, mean of 11 trials, mean daily min 25.1° C., max 35.5° C.
[8] = maximum air temperature 35.1-36 ° C. during five days after application, applied between BBCH 30 and BBCH 51, 10 g ai/ha
[9] = maximum air temperature 36.1-37 ° C. during five days after application, applied between BBCH 30 and BBCH 51, 10 g ai/ha
[10] = maximum air temperature >37 ° C. during five days after application, applied between BBCH 30 and BBCH 51, 10 g ai/ha
[11] = maximum air temperature ≤35 ° C. during five days after application, applied between BBCH 30 and BBCH 51, 10 g ai/ha

With `COc1cccc(Nc2nc(F)nc3[nH]cnc23)c1` [formula (Ia)] the “Average yield increase compared to UTC (%)” value (“Average yield increase … (%)” for short) (rice plants [1]; BBCH 30 at application) was “+3.5%”, the “Yield at 14% MC (kg/ha)” value (rice plants [1]; BBCH 30 at application) was 6741 kg/ha and the “Average yield increase … (%)” value (rice plants [1]; BBCH 32 at application) was “+4.7%”. The “Yield at 14% MC (kg/ha)” value (rice plants [1]; BBCH 32 at application) was 6820 kg/ha, the “Average yield increase … (%)” value (rice plants [1]; BBCH 35 at application) was “+6.4%” and the “Yield at 14% MC (kg/ha)” value (rice plants [1]; BBCH 35 at application) was 6931 kg/ha. For the same compound, the “Average yield increase … (%)” value (rice plants [1]; BBCH 39 at application) was “+3.6%”, the “Yield at 14% MC (kg/ha)” value (rice plants [1]; BBCH 39 at application) was 6757 kg/ha and the “Empty spikelets (% of UTC)” value (rice plants [2]; [3]) was −7.5 % of UTC. For the same compound, the “TGW (% of UTC), thousand grain weight” value (rice plants [2]; [3]) was “+2.5 % of UTC”, the “Grain yield (% of UTC)” value (rice plants [2]; BBCH 30 at application, 10 g ai/ha foliar spray, mean of 11 trials, mean daily min 25.1° C., max 35.5° C. during 14 days after application) was “+6.0 % of UTC” and the “grain yield (as percent change compared to untreated controls)” value (rice plants [2]; BBCH 30 at application, maximum air temperature >36° C. during five days after application, 10 g ai/ha) was “+7.5%”. For the same compound, the “grain yield (as percent change compared to untreated controls)” value (rice plants [2]; BBCH 30 at application, maximum air temperature ≤36° C. during five days after application, 10 g ai/ha) was “+1.6%”, the “Empty spikelets (% of UTC)” value (rice plants [2]; [4]) was −9.3 % of UTC and the “Grain yield (% of UTC)” value (rice plants [2]; [4]) was “+7.4 % of UTC”. For the same compound, the “TGW (% of UTC), thousand grain weight” value (rice plants [2]; [4]) was “+2.2 % of UTC”, the “grain yield (as percent change compared to untreated controls)” value (rice plants [2]; BBCH 32 at application, maximum air temperature >36° C. during five days after application, 10 g ai/ha) was “+9.0%” and the “grain yield (as percent change compared to untreated controls)” value (rice plants [2]; BBCH 32 at application, maximum air temperature ≤36° C. during five days after application, 10 g ai/ha) was “+0.7%”. The “Empty spikelets (% of UTC)” value (rice plants [2]; [5]) was −3.8 % of UTC, the “Grain yield (% of UTC)” value (rice plants [2]; [5]) was “+4.7 % of UTC” and the “TGW (% of UTC), thousand grain weight” value (rice plants [2]; [5]) was “+1.8 % of UTC”. For the same compound, the “grain yield (as percent change compared to untreated controls)” value (rice plants [2]; BBCH 35 at application, maximum air temperature >36° C. during five days after application, 10 g ai/ha) was “+5.4%”, the “grain yield (as percent change compared to untreated controls)” value (rice plants [2]; BBCH 35 at application, maximum air temperature ≤36° C. during five days after application, 10 g ai/ha) was “+1.8%” and the “Empty spikelets (% of UTC)” value (rice plants [2]; [6]) was −6.6 % of UTC. For the same compound, the “Grain yield (% of UTC)” value (rice plants [2]; [6]) was “+4.9 % of UTC”, the “TGW (% of UTC), thousand grain weight” value (rice plants [2]; [6]) was “+1.6 % of UTC” and the “grain yield (as percent change compared to untreated controls)” value (rice plants [2]; BBCH 39 at application, maximum air temperature >36° C. during five days after application, 10 g ai/ha) was “+5.1%”. For the same compound, the “grain yield (as percent change compared to untreated controls)” value (rice plants [2]; BBCH 39 at application, maximum air temperature ≤36° C. during five days after application, 10 g ai/ha) was “+2.6%”, the “Empty spikelets (% of UTC)” value (rice plants [2]; [7]) was −3.5 % of UTC and the “Grain yield (% of UTC)” value (rice plants [2]; [7]) was “+2.8 % of UTC”. For the same compound, the “TGW (% of UTC), thousand grain weight” value (rice plants [2]; [7]) was “+2.0 % of UTC”, the “grain yield (as percent change compared to untreated controls)” value (rice plants [2]; BBCH 51 at application, maximum air temperature >36° C. during five days after application, 10 g ai/ha) was “+3.6%” and the “grain yield (as percent change compared to untreated controls)” value (rice plants [2]; BBCH 51 at application, maximum air temperature ≤36° C. during five days after application, 10 g ai/ha) was −0.7%. For the same compound, the “grain yield, effect in words” value (rice plants [2]; applied between BBCH 30 (panicle initiation) and BBCH 51 (heading)) was “an increase of grain yield was achieved”, the “effect of treatment on rice grain yield, in words” value (rice plants [2]; daily maximum temperature above 36° C. at least one day after application but within 5 days after application) was “clear beneficial effect” and the “Grain yield (% of UTC)” value (rice plants [2]; [8]) was “+1.1 % of UTC”. The “TGW (% of UTC)” value (rice plants [2]; [8]) was “+2.3 % of UTC”, the “Grain yield (% of UTC)” value (rice plants [2]; [9]) was “+5.5 % of UTC” and the “TGW (% of UTC)” value (rice plants [2]; [9]) was “+2.2 % of UTC”. For the same compound, the “Grain yield (% of UTC)” value (rice plants [2]; [10]) was “+6.6 % of UTC”, the “TGW (% of UTC)” value (rice plants [2]; [10]) was “+1.8 % of UTC” and the “Grain yield (% of UTC)” value (rice plants [2]; [11]) was “+0.9 % of UTC”. The “TGW (% of UTC)” value (rice plants [2]; [11]) was “+1.4 % of UTC” and the “heat stress protection, in words” value (rice plants [2]; plants at growth stages from panicle initiation (BBCH 30) to heading (BBCH 51) at the time of treatment) was “heat stress protection was achieved”.

Reference: patent US10798942B2, “Abiotic stress tolerance” (SYNGENTA PARTICIPATIONS AG, priority 2016, dated 2020)
